Test results from patent publication US20200345689A1, “METHODS AND CO[…] RRx-001 FOR RADIOPROTECTION” (EpicentRx, Inc., priority 2018, published 2020).

Legend:
[1] = tested on: HO-1; test: Western blot of HO-1 in U937 monocytes and macrophages; type: cell-based, human; conditions: 3 mM RRx-001 for 16 hours
Procedure: (§1) Expression of ARE proteins was assayed in hMSC, macrophages, and monocytes following in vitro irradiation of the cells, which were pretreated with RRx-001 or vehicle. Protein expression was assayed by Western blotting and protein quantification.
(§2) hMSC were treated for 16 hours with […] RRx-001 or the vehicle control (0.05% DMSO), irradiated at 10 Gy or sham-irradiated and the protein collected 8 or 24 hours post-sham or irradiation. Human monocytic leukemic THP-1 and U937 cells were differentiated into macrophages with 50 nM Phorbol 12-myristate 13-acetate (PMA) for 24 hours before treatment. Differentiated and non-differentiated cells were treated with […] RRx-001 or 0.05% DMSO (vehicle control) for 16 hours prior to radiation. The cells were irradiated at 5 Gy or sham-irradiated and collected 4-8 hours later for both analysis. For each experiment, duplicates of each sample were run.

[2] = tested on: NAD(P)H Dehydrogenase [Quinone] 1 (NQO-1); test: Western blot of ARE protein expression in hMSC: NQO-1; type: cell-based, human; conditions: 5 mM RRx-001 for 16 hours, all groups
Procedure: (§3) Antioxidant response element (ARE) genes such as heme oxygenase 1 (HO-1), NAD(P)H Dehydrogenase [Quinone] 1 (NQO-1) and Superoxide Dismutase (SOD) are involved in the detoxification and elimination of reactive oxidants.
as §1, §2

[3] = tested on: heme oxygenase 1 (HO-1); test: Western blot of ARE protein expression in hMSC: HO-1; type: cell-based, human; conditions: 5 mM RRx-001 for 16 hours
Procedure: as §3, §1, §2

[4] = tested on: SOD-1; test: Western blot of SOD-1 in U937 macrophages; type: cell-based, human; conditions: 3 mM RRx-001 for 16 hours, sham and irradiated groups
Procedure: as §1, §2

[5] = tested on: NQO-1; test: Western blot of NQO-1 in U937 macrophages; type: cell-based, human; conditions: 3 mM RRx-001 for 16 hours, sham and irradiated groups
Procedure: as §1, §2

[6] = tested on: HO-1; test: Western blot of HO-1 in THP-1 monocytes and macrophages; type: cell-based, human; conditions: THP-1 macrophages, 3 mM RRx-001 for 16 hours
Procedure: as §1, §2

[7] = tested on: CD2F1 male mice; test: Complete blood count with differential and reticulocytes after sublethal TBI or sham irradiation; type: in vivo
Procedure: To determine the pathophysiological effects of RRx-001 on hematopoietic protection in mice, CD2F1 male mice were treated with 10 mg/kg RRx-001 or the vehicle control 24 hours prior to a sublethal dose of TBI (7 Gy at 0.6 Gy/min using High-level Cobalt-60) or sham irradiation (day 0) according to the table below.
CD2F1 male mice (n=3/group) were divided into 4 experimental groups: 1) irradiation+vehicle, 2) irradiation+RRx-001, 3) sham-irradiation+vehicle and 4) sham-irradiation+RRx-001. Either 10 mg/kg RRx-001 or the vehicle control were IP injected 24 hours prior to either irradiation or sham-irradiation (day 0). On days 2, 7, 14, 21, and 28 post-irradiation (day 0) mice were humanely euthanized. Blood, bone marrow, and sternebrae were then collected. This experiment was performed in duplicate for a total of n=6 mice/group/time point.
Post-irradiation whole blood was obtained by terminal cardiocentesis. Blood samples were immediately transferred into EDTA tubes (Sarstedt Inc., Newton, N.C.) and gently rotated until the time of analysis. The tubes were analyzed for a complete blood count with differential and reticulocytes using the ADVIA 2120 (Siemens Medical Solutions Diagnostics, Dublin, Ireland), and Microsoft software version 5.9 (Microsoft Corp., Redmond, Wash.) to generate the data.
Blood parameters were compared between treatment groups using an analysis of variance (ANOVA). The Wilcoxon test was also used for sensitivity and to potentially address data departures from normality. A longitudinal mixed model repeated measures was also implemented to provide a more complete data analysis of the sham-irradiated treatment groups' difference in overall time profile mean based on the blood parameters. Bone marrow data (megakaryocytes and grade) statistical analysis was carried out using a parametric test consisting of a general linear model analysis of variance (ANOVA with factors consisting of treatment group and pathologist) and the Kruskal-Wallis nonparametric test. The statistical data analysis was carried out using R software (Version 3.4.3, 2016) and the graphs made using GraphPad Prism version 7.03 (GraphPad Software, La Jolla, Calif.).

[8] = 7 Gy TBI, decrease below sham controls on days 7 and 14
[9] = days 2 and 21 post-irradiation (7 Gy TBI)

## O=C(CBr)N1CC([N+](=O)[O-])([N+](=O)[O-])C1 [RRx-001, 2-bromo-1-(3,3-dinitroazetidin-1-yl)ethan-1-one]
[1]; U937 macrophages, sham and irradiated groups
  HO-1 production: increased HO-1 production
[1]; U937 monocyte fraction
  HO-1 expression: significant increase in HO-1
[2]
  NQO-1 expression: slightly reduced
[3]; 24 hours post-sham or irradiation
  increase in HO-1 expression: 2-3.5 fold
[3]; sham and 10 Gy irradiated groups, 8 hours post-sham or irradiation
  increase in HO-1 expression: 22-26 fold
[4]
  SOD-1 expression: no change
[5]
  NQO-1 expression: no change
[6]
  HO-1 expression: no significant increase in HO-1
[7]; 7 Gy TBI, day 14
  % HCT compared to the irradiated control: significantly increased levels
  ALC counts compared to the controls: significantly increased
  WBC counts compared to the controls: significantly increased
[7]; 7 Gy TBI, day 14, returned to baseline levels
  % RETIC compared to control mice: significantly increased
[7]; 7 Gy TBI, day 28
  % RETIC compared to the vehicle controls: significantly increased
[7]; 7 Gy TBI, days 7 and 14
  ANC compared to the control: significantly increased
  PLT compared to the control: significantly increased
[7]; [8]
  hemoglobin, irradiated RRx-001 vs irradiated vehicle: not significantly different
  red blood cells, irradiated RRx-001 vs irradiated vehicle: not significantly different
[7]; [9]
  absolute lymphocyte count (ALC) vs vehicle control: No significant difference
  absolute neutrophil count (ANC) vs vehicle control: No significant difference
  percent hematocrit (% HCT) vs vehicle control: No significant difference
  percent reticulocytes (% RETIC) vs vehicle control: No significant difference
  platelets (PLT) vs vehicle control: No significant difference
  white blood cells (WBC) vs vehicle control: No significant difference
[7]; sham-irradiated, 10 mg/kg IP, longitudinal mixed model repeated measures
  platelets, overall mean over time (standard error): 1067.73 (32.26)
[7]; sham-irradiated, least-square means, p=0.01
  difference in the overall mean of platelets over time vs vehicle: statistically significant difference in the least-square means in favor of RRx-001-treatment
